# From article PMC2947195 (Biochemical Journal, 2010)
# Changes are numbered by the printed parent chain. Like-named read-outs stand apart in the source and are kept apart here.
# Key:
# Assay in all cases: Competitive inhibition of [3H]MTX uptake
# Assay type in all cases: cell-based
# S313A hRFC = target: T1, S313A hRFC (Homo sapiens, UniProt P41440, S313A)
# T1 sequence (P41440 1-591 S313A): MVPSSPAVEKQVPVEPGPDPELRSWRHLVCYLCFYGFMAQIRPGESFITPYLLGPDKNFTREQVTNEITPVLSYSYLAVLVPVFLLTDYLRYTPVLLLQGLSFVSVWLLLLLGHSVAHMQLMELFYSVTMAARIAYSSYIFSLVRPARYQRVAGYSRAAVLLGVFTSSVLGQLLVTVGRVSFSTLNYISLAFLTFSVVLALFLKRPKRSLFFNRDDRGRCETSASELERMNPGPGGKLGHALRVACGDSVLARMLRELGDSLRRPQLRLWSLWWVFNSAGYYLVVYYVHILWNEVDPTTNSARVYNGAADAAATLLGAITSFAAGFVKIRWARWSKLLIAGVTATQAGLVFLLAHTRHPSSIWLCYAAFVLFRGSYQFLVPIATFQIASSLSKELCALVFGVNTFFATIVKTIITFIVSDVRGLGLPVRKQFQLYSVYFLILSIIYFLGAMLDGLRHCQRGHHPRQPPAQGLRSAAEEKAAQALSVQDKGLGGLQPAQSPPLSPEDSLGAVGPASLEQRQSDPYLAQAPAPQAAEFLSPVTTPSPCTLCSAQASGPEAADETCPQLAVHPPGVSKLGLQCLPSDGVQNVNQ
# wt hRFC = target: T2, wt hRFC (Homo sapiens, UniProt P41440)
# T2 sequence (P41440 1-591): T1 sequence (P41440 1-591 S313A) with A313S
# S313T hRFC = target: T3, S313T hRFC (Homo sapiens, UniProt P41440, S313T); conditions: for decrease of Ki compared with wt hRFC: S313T hRFC versus wt hRFC
# T3 sequence (P41440 1-591 S313T): T1 sequence (P41440 1-591 S313A) with A313T
SMILES,Ki (S313A hRFC),decrease of Ki compared with wt hRFC (S313A hRFC; S313A hRFC versus wt hRFC),Ki (wt hRFC),Ki (S313T hRFC),decrease of Ki compared with wt hRFC (S313T hRFC),increase of Ki compared with wt carrier (S313A hRFC; S313A hRFC versus wt hRFC),"Ki (S313A hRFC; S313A hRFC, inhibition of [3H]MTX (1 μM) uptake, Dixon plots, mean±S.E.M., n=3)","Ki (wt hRFC; wt hRFC, inhibition of [3H]MTX (1 μM) uptake, Dixon plots, mean±S.E.M., n=3)","Ki (S313T hRFC; S313T hRFC, inhibition of [3H]MTX (1 μM) uptake, Dixon plots, mean±S.E.M., n=3)"
"Nc1nc(N)c2nc(CNc3ccc(C(=O)N[C@@H](CCC(=O)O)C(=O)O)cc3)cnc2n1 [Aminopterin, aminopterin]",3.43 ± 0.58 µM,2–3 fold,7.03 ± 0.02 µM,2.75 ± 0.15 µM,2–3 fold,–,–,–,–
"CCC(Cc1cnc2nc(N)nc(N)c2n1)c1ccc(C(=O)N[C@@H](CCC(=O)O)C(=O)O)cc1 (stereo partly drawn) [Edatrexate, 10-ethyl-10-deazaaminopterin]",4.25 ± 0.53 µM,–,5.48 ± 1.1 µM,2.23 ± 0.38 µM,–,–,–,–,–
"Nc1nc(=O)c2nc(CNc3ccc(C(=O)N[C@@H](CCC(=O)O)C(=O)O)cc3)cnc2[nH]1 [Folic acid, folic acid]",435 ± 82.7 µM,–,194 ± 5.45 µM,237 ± 58.4 µM,–,~ 2 fold,–,–,–
"Cc1nc2ccc3ccc(CNc4ccc5c(c4)CN([C@@H](CCC(=O)O)C(=O)O)C5=O)cc3c2c(=O)[nH]1 [GW1843U89, (S)-2-[5-({[1,2-dihydro-3-methyl-1-oxo-benzo(f)quinazolin-9-yl]methyl}amino)1-oxo-2-isoindolinyl] glutaric acid]",2.61 ± 0.5 µM,–,2.1 ± 0.01 µM,0.75 ± 0.06 µM,2–3 fold,–,–,–,–
"Nc1nc2c(c(=O)[nH]1)N(C=O)C(CNc1ccc(C(=O)N[C@@H](CCC(=O)O)C(=O)O)cc1)CN2 (stereo partly drawn) [Leucovorin, (6R,S)-5-formyl tetrahydrofolate]",12.3 ± 0.88 µM,2–3 fold,18.7 ± 1.54 µM,7.74 ± 0.66 µM,2–3 fold,–,–,–,–
"Nc1nc(N)c2nc(CNc3ccc(C(=O)N[C@@H](CCCNC(=O)c4ccccc4C(=O)O)C(=O)O)cc3)cnc2n1 [PT523, N^α-(4-amino-4-deoxypteroyl)-N^δ-hemiphthaloyl-L-ornithine]",–,–,–,–,–,–,3.13 ± 0.17 µM,4.56 ± 0.97 µM,2.86 ± 0.85 µM
"Nc1nc2[nH]cc(CCc3ccc(C(=O)N[C@@H](CCC(=O)O)C(=O)O)cc3)c2c(=O)[nH]1 [Pemetrexed, N-{4-[2(2-amino-3,4-dihydro-4-oxo-7H-pyrrolo[2,3-d]pyrimidin-5-yl)ethyl]benzoyl}-L-glutamic acid]",–,2–3 fold,–,–,2–3 fold,–,–,–,–
"Cc1nc2ccc(CN(C)c3ccc(C(=O)N[C@@H](CCC(=O)O)C(=O)O)s3)cc2c(=O)[nH]1 [Raltitrexed, N-{5-[N-(3,4-dihydro-2methyl-4-oxyquinazolin-6-ylmethyl)-N-methyl-amino]-2-thienoyl}-L-glutamic acid]",–,–,–,–,2–3 fold,–,–,–,–
"C#CCN(Cc1cc2c(=O)[nH]c(C)nc2cc1C)c1ccc(C(=O)N[C@@H](CCc2nnn[nH]2)C(=O)O)c(F)c1 [ZD9331, (2S)-2-{O-fluoro-p-[N-(2,7dimethyl-4-oxo-3,4-dihydro-quinazolin-6-ylmethyl)-N-(prop-2ynyl)amino]benzamido}-4-(tetrazol-5-yl)-butyric acid]",2.96 ± 0.52 µM,–,4.42 ± 0.93 µM,2.31 ± 0.18 µM,–,–,–,–,–
